Assay results: ChEMBL document CHEMBL3621090, “Discovery of a novel Kv7 channel opener as a treatment for epilepsy” (Bioorg Med Chem Lett, 2015)

Legend:
[1] = tested on: Rattus norvegicus; test: Anticonvulsant activity in sc dosed Sprague-Dawley rat assessed as protection against maximal electroshock-induced convulsion administered 30 mins prior to application of shock via corneal electrodes; format: functional, organism-based
[2] = target: Voltage-gated potassium channel KCNQ3/KCNQ5 (Homo sapiens, UniProt O43525+Q9NR82); test: Activation of human Kv7.3/7.5 expressed in CHOK1 cells; format: cell-based, CHO-K1
Chain of Voltage-gated potassium channel KCNQ3/KCNQ5 (O43525 whole entry): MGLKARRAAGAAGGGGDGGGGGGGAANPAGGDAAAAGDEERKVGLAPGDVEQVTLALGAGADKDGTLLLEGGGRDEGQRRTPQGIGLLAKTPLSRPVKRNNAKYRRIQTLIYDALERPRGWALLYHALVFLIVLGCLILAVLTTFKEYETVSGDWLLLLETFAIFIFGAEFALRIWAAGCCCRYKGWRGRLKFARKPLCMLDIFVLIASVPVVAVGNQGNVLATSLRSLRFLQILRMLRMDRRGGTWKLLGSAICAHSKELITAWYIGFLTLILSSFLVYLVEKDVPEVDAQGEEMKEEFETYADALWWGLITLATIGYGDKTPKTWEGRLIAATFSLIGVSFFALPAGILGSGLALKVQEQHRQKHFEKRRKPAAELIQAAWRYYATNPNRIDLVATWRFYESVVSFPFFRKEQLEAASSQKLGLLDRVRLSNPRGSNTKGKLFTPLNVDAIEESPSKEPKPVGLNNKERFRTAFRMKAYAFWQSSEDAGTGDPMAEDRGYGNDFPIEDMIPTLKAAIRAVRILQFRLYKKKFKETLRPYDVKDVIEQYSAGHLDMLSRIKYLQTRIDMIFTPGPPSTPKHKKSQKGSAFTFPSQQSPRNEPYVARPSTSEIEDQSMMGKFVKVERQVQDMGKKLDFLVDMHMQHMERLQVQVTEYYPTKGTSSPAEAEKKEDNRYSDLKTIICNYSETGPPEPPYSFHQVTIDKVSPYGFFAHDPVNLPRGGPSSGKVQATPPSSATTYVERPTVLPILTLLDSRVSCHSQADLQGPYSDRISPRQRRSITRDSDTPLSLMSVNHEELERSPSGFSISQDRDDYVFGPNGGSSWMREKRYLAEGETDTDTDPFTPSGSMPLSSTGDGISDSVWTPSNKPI
Chain of Voltage-gated potassium channel KCNQ3/KCNQ5 (Q9NR82 whole entry): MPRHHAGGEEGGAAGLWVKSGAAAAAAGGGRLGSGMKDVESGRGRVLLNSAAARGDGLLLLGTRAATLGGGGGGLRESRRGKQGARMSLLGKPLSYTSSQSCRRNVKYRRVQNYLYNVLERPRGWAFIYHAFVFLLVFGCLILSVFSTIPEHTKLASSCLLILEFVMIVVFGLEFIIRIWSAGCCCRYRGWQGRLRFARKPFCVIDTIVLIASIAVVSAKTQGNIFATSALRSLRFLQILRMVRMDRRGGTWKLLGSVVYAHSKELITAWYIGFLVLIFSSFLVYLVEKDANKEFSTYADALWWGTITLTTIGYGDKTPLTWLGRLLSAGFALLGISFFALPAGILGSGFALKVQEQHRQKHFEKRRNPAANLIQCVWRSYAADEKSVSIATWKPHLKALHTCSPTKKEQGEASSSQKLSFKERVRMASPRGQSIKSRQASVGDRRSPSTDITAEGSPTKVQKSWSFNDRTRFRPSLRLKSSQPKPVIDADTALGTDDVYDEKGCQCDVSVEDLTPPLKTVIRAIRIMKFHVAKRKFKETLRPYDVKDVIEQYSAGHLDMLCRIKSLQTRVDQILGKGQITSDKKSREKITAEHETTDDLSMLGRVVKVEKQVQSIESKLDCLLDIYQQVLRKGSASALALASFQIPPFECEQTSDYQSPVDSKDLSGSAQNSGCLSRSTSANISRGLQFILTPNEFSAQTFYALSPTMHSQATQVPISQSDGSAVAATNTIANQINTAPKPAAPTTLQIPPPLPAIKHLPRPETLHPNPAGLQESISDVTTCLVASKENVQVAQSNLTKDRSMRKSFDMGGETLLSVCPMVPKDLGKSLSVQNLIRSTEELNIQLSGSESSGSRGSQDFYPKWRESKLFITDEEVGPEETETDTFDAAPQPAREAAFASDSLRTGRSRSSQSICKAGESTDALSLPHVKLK

[3] = target: Potassium voltage-gated channel subfamily KQT member 2/member 3 (Rattus norvegicus, UniProt O88943+O88944); test: Activation of rat Kv7.2/7.3 expressed in CHOK1 cells; format: cell-based, CHO-K1
Chain of Potassium voltage-gated channel subfamily KQT member 2/member 3 (O88943 whole entry): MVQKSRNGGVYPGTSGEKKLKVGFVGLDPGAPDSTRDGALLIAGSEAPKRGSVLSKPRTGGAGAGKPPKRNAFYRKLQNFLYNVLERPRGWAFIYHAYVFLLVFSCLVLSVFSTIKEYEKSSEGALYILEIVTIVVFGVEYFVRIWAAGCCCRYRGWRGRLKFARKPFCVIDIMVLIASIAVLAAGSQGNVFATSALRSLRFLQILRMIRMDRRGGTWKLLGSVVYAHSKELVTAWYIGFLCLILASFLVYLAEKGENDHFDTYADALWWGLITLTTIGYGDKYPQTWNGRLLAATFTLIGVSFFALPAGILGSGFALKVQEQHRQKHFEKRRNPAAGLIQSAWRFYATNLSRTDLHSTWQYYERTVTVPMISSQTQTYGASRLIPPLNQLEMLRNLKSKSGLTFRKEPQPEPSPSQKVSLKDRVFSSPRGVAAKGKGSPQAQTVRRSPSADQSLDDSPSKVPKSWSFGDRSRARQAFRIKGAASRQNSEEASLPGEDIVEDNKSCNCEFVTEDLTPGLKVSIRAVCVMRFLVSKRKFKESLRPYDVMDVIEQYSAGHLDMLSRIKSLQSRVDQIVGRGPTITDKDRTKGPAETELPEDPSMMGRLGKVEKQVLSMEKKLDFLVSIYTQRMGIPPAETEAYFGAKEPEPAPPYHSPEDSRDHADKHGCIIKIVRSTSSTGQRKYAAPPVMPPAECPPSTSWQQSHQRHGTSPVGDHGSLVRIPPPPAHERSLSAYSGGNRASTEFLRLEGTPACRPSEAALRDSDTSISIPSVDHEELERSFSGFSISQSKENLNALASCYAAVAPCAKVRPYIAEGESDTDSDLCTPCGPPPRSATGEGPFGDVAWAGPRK
Chain of Potassium voltage-gated channel subfamily KQT member 2/member 3 (O88944 whole entry): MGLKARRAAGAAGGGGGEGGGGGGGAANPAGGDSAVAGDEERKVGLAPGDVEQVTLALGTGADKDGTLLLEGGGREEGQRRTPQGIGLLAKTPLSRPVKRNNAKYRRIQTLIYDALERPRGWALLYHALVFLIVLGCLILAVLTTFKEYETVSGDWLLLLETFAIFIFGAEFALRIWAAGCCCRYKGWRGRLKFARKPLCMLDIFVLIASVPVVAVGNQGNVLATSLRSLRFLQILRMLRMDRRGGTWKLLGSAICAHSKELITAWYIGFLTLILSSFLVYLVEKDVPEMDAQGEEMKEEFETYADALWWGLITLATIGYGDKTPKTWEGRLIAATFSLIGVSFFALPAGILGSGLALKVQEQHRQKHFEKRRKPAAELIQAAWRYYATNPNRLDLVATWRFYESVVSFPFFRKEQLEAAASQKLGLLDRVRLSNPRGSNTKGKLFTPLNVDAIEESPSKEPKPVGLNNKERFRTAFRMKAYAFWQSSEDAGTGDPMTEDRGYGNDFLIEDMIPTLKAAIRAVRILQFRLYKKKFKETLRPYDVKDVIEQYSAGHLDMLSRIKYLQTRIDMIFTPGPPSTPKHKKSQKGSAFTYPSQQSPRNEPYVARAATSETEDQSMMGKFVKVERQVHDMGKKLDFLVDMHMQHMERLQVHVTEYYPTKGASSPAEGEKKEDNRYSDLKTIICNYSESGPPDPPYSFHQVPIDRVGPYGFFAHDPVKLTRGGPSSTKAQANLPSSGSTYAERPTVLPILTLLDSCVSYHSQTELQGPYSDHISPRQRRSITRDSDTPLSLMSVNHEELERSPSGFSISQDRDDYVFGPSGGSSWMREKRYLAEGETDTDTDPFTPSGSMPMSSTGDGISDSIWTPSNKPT

[4] = target: T1, Potassium voltage-gated channel subfamily KQT member 4 (Rattus norvegicus, UniProt Q9JK96); test: Activation of rat Kv7.4 expressed in CHOK1 cells; format: cell-based, CHO-K1
T1 sequence (Q9JK96 whole entry): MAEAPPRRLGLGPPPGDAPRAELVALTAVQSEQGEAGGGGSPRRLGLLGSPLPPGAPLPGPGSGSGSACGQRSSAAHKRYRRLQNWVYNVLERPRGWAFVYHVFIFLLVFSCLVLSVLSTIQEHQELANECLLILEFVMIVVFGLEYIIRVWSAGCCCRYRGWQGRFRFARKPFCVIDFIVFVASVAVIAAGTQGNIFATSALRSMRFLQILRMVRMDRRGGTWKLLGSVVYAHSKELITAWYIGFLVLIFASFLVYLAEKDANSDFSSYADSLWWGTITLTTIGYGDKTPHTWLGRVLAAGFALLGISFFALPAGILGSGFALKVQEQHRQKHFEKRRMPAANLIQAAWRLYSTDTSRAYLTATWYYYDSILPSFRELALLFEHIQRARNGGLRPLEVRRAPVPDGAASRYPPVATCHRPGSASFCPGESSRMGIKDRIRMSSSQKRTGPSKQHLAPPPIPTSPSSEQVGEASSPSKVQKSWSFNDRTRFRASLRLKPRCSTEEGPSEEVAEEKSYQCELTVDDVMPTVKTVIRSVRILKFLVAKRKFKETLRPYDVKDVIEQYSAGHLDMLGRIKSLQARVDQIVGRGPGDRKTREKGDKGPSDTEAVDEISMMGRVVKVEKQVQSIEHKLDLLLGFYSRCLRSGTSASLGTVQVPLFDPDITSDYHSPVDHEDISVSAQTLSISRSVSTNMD

[5] = Activation of rat Kv7.3/7.5 expressed in CHOK1 cells; format: cell-based; settings: CHO-K1
[6] = target: T2, Potassium voltage-gated channel subfamily KQT member 4 (Homo sapiens) (UniProt P56696); test: Activation of human Kv7.4 expressed in CHOK1 cells assessed as increase in current amplitude relative to control; format: cell-based; settings: CHO-K1
T2 sequence (whole entry): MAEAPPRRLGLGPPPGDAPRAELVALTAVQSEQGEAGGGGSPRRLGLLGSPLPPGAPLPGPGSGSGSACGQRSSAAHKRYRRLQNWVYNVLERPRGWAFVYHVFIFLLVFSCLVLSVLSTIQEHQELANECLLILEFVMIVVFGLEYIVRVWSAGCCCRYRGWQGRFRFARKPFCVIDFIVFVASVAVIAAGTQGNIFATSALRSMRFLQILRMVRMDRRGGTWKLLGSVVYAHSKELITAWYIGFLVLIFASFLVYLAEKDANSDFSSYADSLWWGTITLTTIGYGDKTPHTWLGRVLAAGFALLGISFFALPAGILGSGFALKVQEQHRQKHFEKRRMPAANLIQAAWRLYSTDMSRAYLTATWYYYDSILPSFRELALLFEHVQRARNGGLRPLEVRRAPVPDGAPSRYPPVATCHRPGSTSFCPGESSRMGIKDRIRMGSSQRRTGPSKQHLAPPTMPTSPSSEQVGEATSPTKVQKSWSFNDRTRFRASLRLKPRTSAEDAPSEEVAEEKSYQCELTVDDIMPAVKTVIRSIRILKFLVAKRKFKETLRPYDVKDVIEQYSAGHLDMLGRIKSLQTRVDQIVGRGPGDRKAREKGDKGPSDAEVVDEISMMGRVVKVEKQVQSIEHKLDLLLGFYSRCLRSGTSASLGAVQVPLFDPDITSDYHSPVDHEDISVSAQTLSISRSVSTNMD

[7] = target: T3, Potassium voltage-gated channel subfamily KQT member 4 (Rattus norvegicus) (UniProt Q9JK96); test: Activation of rat Kv7.4 expressed in CHOK1 cells assessed as increase in current amplitude relative to control; format: cell-based; settings: CHO-K1
T3 sequence (whole entry): T1 sequence (Q9JK96 whole entry)

[8] = Intrinsic clearance in human liver microsomes measured over 1 hr in presence of NADPH regenerating system; format: ADME; settings: read-out: CLH
[9] = Permeability in dog RRCK cells after 2 hrs by transwell assay; format: ADME, cell-based, Canis lupus familiaris, MDCKII-LE; settings: mdck, read-out: permeability
[10] = tested on: Plasma; test: Unbound plasma concentration in Sprague-Dawley rat at 3 mg/kg, sc administered at 30 mins by LC-MS/MS analysis; format: ADME, organism-based; settings: in vivo, 0.5 h
[11] = tested on: Plasma; test: Unbound plasma concentration in Sprague-Dawley rat at 10 mg/kg, sc administered at 30 mins by LC-MS/MS analysis; format: ADME, organism-based; settings: in vivo, 0.5 h
[12] = tested on: Plasma; test: Unbound plasma concentration in Sprague-Dawley rat at 30 mg/kg, sc administered at 30 mins by LC-MS/MS analysis; format: ADME, organism-based; settings: in vivo, 0.5 h
[13] = tested on: Brain; test: Fraction unbound in Sprague-Dawley rat brain at 1 mg/kg, sc administered at 30 mins by LC-MS/MS analysis; format: ADME, organism-based; settings: in vivo, 0.5 h
[14] = tested on: Brain; test: Fraction unbound in Sprague-Dawley rat brain at 3 mg/kg, sc administered at 30 mins by LC-MS/MS analysis; format: ADME, organism-based; settings: in vivo, 0.5 h
[15] = tested on: Brain; test: Fraction unbound in Sprague-Dawley rat brain at 10 mg/kg, sc administered at 30 mins by LC-MS/MS analysis; format: ADME, organism-based; settings: in vivo, 0.5 h
[16] = Ratio of free drug level in plasma to brain in Sprague-Dawley rat at 1 mg/kg, sc administration at 30 mins; format: ADME, organism-based; settings: in vivo, 0.5 h
[17] = Ratio of free drug level in plasma to brain in Sprague-Dawley rat at 3 mg/kg, sc administration at 30 mins; format: ADME, organism-based; settings: in vivo, 0.5 h
[18] = Ratio of free drug level in plasma to brain in Sprague-Dawley rat at 30 mg/kg, sc administration at 30 mins; format: ADME, organism-based; settings: in vivo, 0.5 h
[19] = tested on: Brain; test: Fraction unbound in Sprague-Dawley rat brain at 10 mg/kg, po administered at 60 mins by LC-MS/MS analysis; format: ADME, organism-based; settings: in vivo, 1 h
[20] = Ratio of free drug level in plasma to brain in Sprague-Dawley rat at 30 mg/kg, po administration at 60 mins; format: ADME, organism-based; settings: in vivo, 1 h
[21] = tested on: Rattus norvegicus; test: Anticonvulsant activity in Sprague-Dawley rat assessed as protection against maximal electroshock-induced convulsion at 10 mg/kg, sc administered 30 mins prior to application of shock via corneal electrodes relative to control; format: functional
[22] = tested on: Rattus norvegicus; test: Anticonvulsant activity in Sprague-Dawley rat assessed as protection against maximal electroshock-induced convulsion at 1 mg/kg, po administered 60 mins prior to application of shock via corneal electrodes relative to control; format: functional
[23] = tested on: Rattus norvegicus; test: Anticonvulsant activity in Sprague-Dawley rat assessed as protection against maximal electroshock-induced convulsion at 3 mg/kg, po administered 60 mins prior to application of shock via corneal electrodes relative to control; format: functional
[24] = Fraction unbound in rat brain by equilibrium dialysis method; format: ADME, tissue-based
[25] = Fraction unbound in rat plasma by equilibrium dialysis method; format: ADME, cell-free

EC50 [2]: 0.588 µM
EC50 [3]: 0.294 µM
EC50 [4]: 0.376 µM
EC50 [5]: 1.33 µM
Activity [6]: 163%
Activity [7]: 161%
CLint scaled [8]: 15.6 mL/min/kg
Papp at 2 h [9]: 24.9 ×10⁻⁶ cm/s
Cp(f) [10]: 151 nM
Cp(f) [11]: 211 nM
Cp(f) [12]: 305 nM
Drug uptake(free) [13]: 33 nM
Drug uptake(free) [14]: 90 nM
Drug uptake(free) [15]: 125 nM
Ratio [16]: 0.57
Ratio [17]: 0.59
Ratio [18]: 0.55
Drug uptake(free) [19]: 83 nM
Ratio [20]: 0.48
fraction unbound [24]: 0.13
fraction unbound [25]: 0.184
SMILES: COc1nc(N2CCC(OC)CC2)nc(OC)c1NC(=O)CC(C)(C)C
Activity [1]: Dose-dependent effect
Activity [21]: 100%
Activity [22]: 0%
Activity [23]: 88%
